From patent US8852634B2, “Dosage formulation” (Hoffmann-La Roche Inc., priority 2005, dated 2014)
Where two headings read alike, the source gives them in different places.

Assay: Solubility of the crystalline compounds in aqueous media
Type: physicochemical

A solubility (aqueous buffer solutions of pH 3.0-7.0, read-out: solubility in aqueous buffer solutions) of less than 0.1 µg/mL and a solubility (water, 'above noted insolubilities', read-out: solubility in water) of less than 0.1 µg/mL were found for `Cc1ccccc1-c1cc(N2CCOCC2)ncc1N(C)C(=O)C(C)(C)c1cc(C(F)(F)F)cc(C(F)(F)F)c1` [2-(3,5-bis-trifluoromethyl-phenyl)-N-methyl-N-(6-morpholin-4-yl-4-o-tolyl-pyridin-3-yl)-isobutyramide] in this work.
